From article PMC7070036, “An amber obligate active site-directed ligand evolution technique for phage display” (Nature Communications, 2020)
Where “and” joins values, the source holds several entries; their conditions need not be identical. Identical values can stand only once. Non-standard residues stand in square brackets, D forms with d. Residues, ends and D or L forms follow the SMILES beside them. Lys(thiomyristoyl) = CCCCCCCCCCCCCC(=S)NCCCC[C@H](N)C(=O)O

Legend:
SIRT1 = biological target: T1, SIRT1 (Homo sapiens, UniProt Q96EB6); assay: Continuous fluorogenic sirtuin inhibition assay, SIRT1; type: biochemical
T1 sequence (Q96EB6 1-747): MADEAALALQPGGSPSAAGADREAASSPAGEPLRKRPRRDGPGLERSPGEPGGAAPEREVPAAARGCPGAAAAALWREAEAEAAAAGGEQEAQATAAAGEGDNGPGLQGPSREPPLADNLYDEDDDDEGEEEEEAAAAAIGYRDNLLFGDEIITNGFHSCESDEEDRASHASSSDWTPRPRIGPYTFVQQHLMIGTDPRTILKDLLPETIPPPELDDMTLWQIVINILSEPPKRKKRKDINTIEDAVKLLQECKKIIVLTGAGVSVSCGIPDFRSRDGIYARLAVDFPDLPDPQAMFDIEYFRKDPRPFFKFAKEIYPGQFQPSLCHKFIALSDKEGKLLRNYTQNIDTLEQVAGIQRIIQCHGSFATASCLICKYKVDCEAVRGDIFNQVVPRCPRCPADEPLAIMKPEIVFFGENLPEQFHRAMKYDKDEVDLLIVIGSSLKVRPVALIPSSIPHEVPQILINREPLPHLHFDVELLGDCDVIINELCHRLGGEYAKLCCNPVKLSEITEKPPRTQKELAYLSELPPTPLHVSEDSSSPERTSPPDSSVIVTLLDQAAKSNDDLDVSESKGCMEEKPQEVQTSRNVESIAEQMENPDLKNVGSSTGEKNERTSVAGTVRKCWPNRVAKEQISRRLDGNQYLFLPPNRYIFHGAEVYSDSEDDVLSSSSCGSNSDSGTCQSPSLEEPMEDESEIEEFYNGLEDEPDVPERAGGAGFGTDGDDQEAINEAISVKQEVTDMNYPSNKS
Protocol: (§1) The continuous assay for comparing isoform specificity of S2P04 was performed using the universal fluorogenic sirtuin substrate described by Schuster et al.[41]. Briefly, the inhibition reactions were performed in 50-µL volumes at 37 °C in black, half-area, 96-well plates. The sirtuin enzyme (0.25 µM) was preincubated with different concentrations of the peptide S2P04 (0.0064–50 µM for SIRT1 and SIRT2, 0.5–100 µM for SIRT3) or TB (0.16–150 µM for SIRT1–SIRT3), and 1 mM NAD^+ in assay buffer (20 mM Tris, pH 7.8, 150 mM NaCl, 5 mM MgCl2, and 1 mM DTT) for 15 min. Following incubation, the reaction started with the addition of the fluorogenic substrate (5 µM), and product formation was monitored by measuring the fluorescence intensity every 20 s for 5 min (SIRT2) or 30 min (SIRT1 and SIRT3) in a BioTek Synergy H1 microplate reader at λex = 320 nm and λem = 408 nm (gain = 130 and read height = 7 mm). Initial rates of product formation were determined by a linear regression of the plot of fluorescence intensity vs. time and normalized relative to 0% (max inhibitor) and 100% (no inhibitor) controls. The assay was repeated to determine the IC50 values of all BuK peptides for SIRT2. IC50 values were determined by nonlinear regression of the plot of the normalized initial rate vs. inhibitor concentration using GraphPad Prism. The determined IC50 values are provided in Supplementary Table 2, and inhibition curves can be seen in Supplementary Fig. 20.

SIRT2 [1] = biological target: T2, SIRT2 (Homo sapiens, UniProt Q8IXJ6); assay: Continuous fluorogenic sirtuin inhibition assay, SIRT2 (tBuK peptides, TB); type: biochemical
T2 sequence (Q8IXJ6 1-389): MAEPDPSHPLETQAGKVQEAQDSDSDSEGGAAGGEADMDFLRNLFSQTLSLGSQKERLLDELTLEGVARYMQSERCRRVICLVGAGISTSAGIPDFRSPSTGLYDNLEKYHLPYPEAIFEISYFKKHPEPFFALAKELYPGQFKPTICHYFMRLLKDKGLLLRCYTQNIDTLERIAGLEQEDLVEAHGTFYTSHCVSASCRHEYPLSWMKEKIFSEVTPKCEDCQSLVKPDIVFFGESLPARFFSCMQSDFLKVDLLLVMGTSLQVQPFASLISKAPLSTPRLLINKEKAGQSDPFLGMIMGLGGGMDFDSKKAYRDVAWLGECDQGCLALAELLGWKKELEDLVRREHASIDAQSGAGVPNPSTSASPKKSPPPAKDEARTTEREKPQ
Protocol: as §1

SIRT3 = biological target: T3, SIRT3 (Homo sapiens, UniProt Q9NTG7); assay: Continuous fluorogenic sirtuin inhibition assay, SIRT3; type: biochemical
T3 sequence (Q9NTG7 1-399): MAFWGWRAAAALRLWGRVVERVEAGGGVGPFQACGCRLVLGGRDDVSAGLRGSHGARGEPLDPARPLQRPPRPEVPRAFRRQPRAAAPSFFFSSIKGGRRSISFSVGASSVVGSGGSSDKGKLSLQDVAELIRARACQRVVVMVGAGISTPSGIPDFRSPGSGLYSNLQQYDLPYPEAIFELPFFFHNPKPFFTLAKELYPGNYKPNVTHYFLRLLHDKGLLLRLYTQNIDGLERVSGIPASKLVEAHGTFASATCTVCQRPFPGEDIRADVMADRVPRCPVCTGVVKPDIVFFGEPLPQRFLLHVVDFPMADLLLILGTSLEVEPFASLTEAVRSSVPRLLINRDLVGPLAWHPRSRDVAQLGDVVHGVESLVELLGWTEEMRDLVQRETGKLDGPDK
Protocol: as §1

[2] = tested on: amber-obligate phagemid library; assay: Phage yield on expression of the amber-obligate phagemid library with ncAAs (cfu assay); design: species or system E. coli Top10; settings: BuKRS
SIRT2 [3] = biological target: T2, SIRT2; assay: SIRT2 inhibition assay for thiomyristoyl peptides; type: biochemical
Protocol: Assays were performed in 40-µL volumes at 37 °C in black, 384-well plates. […] Following incubation, the reaction started with the addition of the fluorogenic substrate (5 µM), and product formation was monitored by measuring the fluorescence intensity every 20 s for 5 min (SIRT2) in a BioTek Synergy H1 microplate reader at λex = 320 nm and λem = 408 nm (gain = 130 and read height = 7 mm). Initial rates were determined using the plot of fluorescence vs. time for linear portions of each curve. IC50 values were then determined using GraphPad Prism to fit a nonlinear regression to the normalized rates vs. inhibitor concentration.

[4] = mean ± SD of two independent experiments

Q: CCCC(=S)NCCCC[C@H](NC(=O)OCc1ccccc1)C(=O)Nc1ccccc1 [TB, reference compound] was tested. Which remaining activity at 0.5 µM (SIRT1; inhibitor 0.5 µM, read-out: Normalized Activity, SIRT1) did it give?
A: 98.9%

Q: What about the remaining activity at 1 µM (SIRT1; inhibitor 1 µM, read-out: Normalized Activity, SIRT1) of the same molecule?
A: 99%

Q: And the remaining activity at 4 µM (SIRT1; inhibitor 4 µM, read-out: Normalized Activity, SIRT1)?
A: 75%

Q: And the remaining activity at 10 µM (SIRT1; inhibitor 10 µM, read-out: Normalized Activity, SIRT1)?
A: 55.9%

Q: And the remaining activity at 150 µM (SIRT1; inhibitor 150 µM, 100 = Activity w/o inhibitor, 0 = Activity of highest inhibitor, read-out: Normalized Activity, SIRT1)?
A: 0%

Q: What about the IC50 (SIRT1; [4]) of the same molecule?
A: 9.62 ± 0.09 µM

Q: And the IC50 (SIRT2 [1]; 0.25 µM SIRT2, 1 mM NAD+, 5 µM fluorogenic substrate, 15 min preincubation, n = 2, read-out: IC50)?
A: 3.11 ± 0.045 µM

Q: What about the remaining activity at 0.5 µM (SIRT2 [1]; inhibitor 0.5 µM, read-out: Normalized Activity, SIRT2) of the same molecule?
A: 112%

Q: What about the activity at 0.5 µM (SIRT2 [1]; inhibitor 0.5 µM, single trials) of the same molecule?
A: 112%

Q: And the “%Activity, SIRT2” value (SIRT2 [1]; inhibitor 0.5 µM, single trials, 0.5 µM)?
A: 98.9568%

Q: And the remaining activity at 1 µM (SIRT2 [1]; inhibitor 1 µM, read-out: Normalized Activity, SIRT2)?
A: 80.3%

Q: And the activity at 1 µM (SIRT2 [1]; inhibitor 1 µM, single trials)?
A: 80.3%

Q: What about the “%Activity, SIRT2” value (SIRT2 [1]; inhibitor 1 µM, single trials, 1 µM) of the same molecule?
A: 81.929%

Q: And the remaining activity at 4 µM (SIRT2 [1]; inhibitor 4 µM, read-out: Normalized Activity, SIRT2)?
A: 40.6%

Q: And the activity at 4 µM (SIRT2 [1]; inhibitor 4 µM, single trials)?
A: 40.6%

Q: And the “%Activity, SIRT2” value (SIRT2 [1]; inhibitor 4 µM, single trials, 4 µM)?
A: 42.8707%

Q: What about the remaining activity at 10 µM (SIRT2 [1]; inhibitor 10 µM, read-out: Normalized Activity, SIRT2) of the same molecule?
A: 6.05%

Q: What about the activity at 10 µM (SIRT2 [1]; inhibitor 10 µM, single trials) of the same molecule?
A: 6.05%

Q: What about the “%Activity, SIRT2” value (SIRT2 [1]; inhibitor 10 µM, single trials, 10 µM) of the same molecule?
A: 11.4809%

Q: And the “%Activity, SIRT2” value (SIRT2 [1]; inhibitor 50 µM, single trials, 50 µM)?
A: -6.644% and -4.551%

Q: And the “%Activity, SIRT2” value (SIRT2 [1]; inhibitor 100 µM, (Activity/Activity w/o inhibitor)*100, single trials, 100 µM)?
A: -5.573% and -9.821%

Q: What about the remaining activity at 150 µM (SIRT2 [1]; inhibitor 150 µM, 100 = Activity w/o inhibitor, 0 = Activity of highest inhibitor, read-out: Normalized Activity, SIRT2) of the same molecule?
A: 0%

Q: What about the IC50 (SIRT2 [1]; mean ± SD of two independent experiments, read-out: IC50, SIRT2) of the same molecule?
A: 3.11 ± 0.04 µM

Q: What about the “inhibition of SIRT3” value (SIRT3; 0.16–150 µM) of the same molecule?
A: 0 = Activity of highest inhibitor *TB for SIRT3 showed no inhibiton

Q: What about the remaining activity at 0.5 µM (SIRT3; inhibitor 0.5 µM, read-out: Normalized Activity, SIRT3) of the same molecule?
A: 90.6%

Q: What about the remaining activity at 1 µM (SIRT3; inhibitor 1 µM, read-out: Normalized Activity, SIRT3) of the same molecule?
A: 91.2%

Q: What about the remaining activity at 4 µM (SIRT3; inhibitor 4 µM, read-out: Normalized Activity, SIRT3) of the same molecule?
A: 93.9%

Q: And the remaining activity at 10 µM (SIRT3; inhibitor 10 µM, read-out: Normalized Activity, SIRT3)?
A: 92.4%

Q: And the remaining activity at 100 µM (SIRT3; inhibitor 100 µM, read-out: Normalized Activity, SIRT3)?
A: 79.9%

Q: What about the IC50 (SIRT3; [4]) of the same molecule?
A: > 150 µM

Q: Which “fold increase in particle yield vs no ncAA” value [2] does the source give for C/C=C/C(=O)NCCCC[C@H](N)C(=O)O [compound 6, N^Ɛ-crotonyl-L-lysine] here?
A: ~100 fold

Q: And the “Phage Yields, ncAA” value ([2]; Fig. 4e, single trials)?
A: 3.00E+09 CFU/mL

Q: Which results are given for CCCCCCCCCCCCCC(=S)NCCCC[C@H](NC(=O)[C@@H](NC(=O)[C@@H](NC(=O)[C@H](CS)NC(=O)[C@@H](N)[C@@H](C)O)[C@@H](C)O)C(C)C)C(=O)N[C@H](C(=O)NCC(N)=O)[C@@H](C)CC [S2P04-tMyK] (H-TCTV[Lys(thiomyristoyl)]IG-NH2)?
A: IC50 (SIRT2 [3]; 10 nM SIRT2, 15 min preincubation, 5 µM substrate, n = 2): 0.013 ± 0.004 µM; activity at 0.000466362 µM (SIRT2 [3]; inhibitor 0.466362 nM): 95.3%; %Activity, SIRT2 (SIRT2 [3]; inhibitor 0.466362 nM, 0.000466362 µM): 104.732%; activity at 0.000932724 µM (SIRT2 [3]; inhibitor 0.932724 nM): 97.9%; %Activity, SIRT2 (SIRT2 [3]; inhibitor 0.932724 nM, 0.000932724 µM): 100.382%; %Activity, SIRT2 (SIRT2 [3]; inhibitor 1.86545 nM, 0.00186545 µM): 87.5221% and 108.94%; %Activity, SIRT2 (SIRT2 [3]; inhibitor 3.7309 nM, 0.0037309 µM): 78.4292% and 108.338%; activity at 0.0074618 µM (SIRT2 [3]; inhibitor 7.4618 nM): 77.8%; %Activity, SIRT2 (SIRT2 [3]; inhibitor 7.4618 nM, 0.0074618 µM): 66.6253%; %Activity, SIRT2 (SIRT2 [3]; inhibitor 14.9236 nM, 0.0149236 µM): 48.6419% and 27.9749%; activity at 0.0596944 µM (SIRT2 [3]; inhibitor 59.6944 nM): 11%; %Activity, SIRT2 (SIRT2 [3]; inhibitor 59.6944 nM, 0.0596944 µM): 20.9299%; %Activity, SIRT2 (SIRT2 [3]; inhibitor 955.11 nM, 0.95511 µM): -1.089% and 1.089%
